Data reported in patent US12115193B2, “Methods of using RARγ agonists for cancer treatment” (Io Therapeutics, Inc., priority 2021, dated 2024).

What was measured:
EMT6 cells [1] = experiment: EMT6 in vitro culture viability, Cell Titer Glo Assay; type: cell-based, mouse; conditions: 5 days; for IC50: Mus musculus, 120 h
Method: EMT6 cells were cultured in vitro for 5 days the presence of a multiple concentrations of the RARγ agonists GA1E, GA2E, and GA3Ep and viability assessed by the Cell Titer Glo Assay® (Promega).

[2] = tested on: Lewis lung carcinoma (LLC) cells; experiment: Lewis lung carcinoma in vitro culture viability, Cell Titer Glo Assay; type: cell-based, mouse; conditions: for IC50: Mus musculus, Lewis lung carcinoma
Method: Lewis lung carcinoma (LLC) cells were cultured in vitro the presence of a multiple concentrations of the RARγ agonists GA1E, GA2E, and GA3Ep and viability assessed by the Cell Titer Glo Assay®.

PBMC = experiment: CMV recall antigen-stimulated PBMC: IFNγ production and CFSE proliferation; type: cell-based; conditions: four days, vs vehicle control; for IFNγ production: 0.1 to 1000 nM; for Proliferation of CD8+ cells (CFSE dilution): increase small
Method: Peripheral blood mononuclear cells (PBMC) from a cytomegalovirus (CMV)-positive donor were labeled with carboxyfluorescein succinimidyl ester (CFSE) and stimulated with CMV recall antigens at […]. The PBMC were then treated with one of three difference RARγ selective agonists or vehicle (DMSO) control and incubated at 37° C., 5% CO2 for four days. Culture supernatant was harvested and assayed for IFNγ production and the PBMC evaluated for proliferation by flow cytometry for CFSE dilution.
CFSE is a fluorescent reactive cell membrane permeable dye. After it is taken up, CFSE covalently modifies proteins and is retained in cells for long periods of time. The CFSE-modified proteins are generally evenly divided between daughter cells at each division so that fluorescent intensity of the cells falls by have at each division. Thus diminution of the dye's fluorescent signal can be used as a measure of proliferation.

RARγ = target: T1, RARγ (Homo sapiens, UniProt P13631); experiment: RARγ transactivation assay (luciferase reporter); type: cell-based
T1 construct: expression plasmids encoding the full-length receptors RARα and RARγ; expressed in transfected cells
T1 sequence (P13631 1-454): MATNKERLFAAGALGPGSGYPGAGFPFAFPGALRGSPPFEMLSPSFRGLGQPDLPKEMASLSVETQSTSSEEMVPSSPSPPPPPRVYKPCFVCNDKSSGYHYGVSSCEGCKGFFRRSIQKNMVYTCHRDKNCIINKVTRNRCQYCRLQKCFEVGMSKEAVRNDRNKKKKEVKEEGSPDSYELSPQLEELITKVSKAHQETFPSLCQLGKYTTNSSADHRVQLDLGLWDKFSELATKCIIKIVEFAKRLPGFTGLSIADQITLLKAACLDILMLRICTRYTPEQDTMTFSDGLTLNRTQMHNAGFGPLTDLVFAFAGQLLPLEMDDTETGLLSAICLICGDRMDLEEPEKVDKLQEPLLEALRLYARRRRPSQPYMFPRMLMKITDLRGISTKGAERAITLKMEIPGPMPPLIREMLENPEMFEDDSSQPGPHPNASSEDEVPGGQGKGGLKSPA
Method: Transactivation assays were conducted to test the specificity of binding activity of GA1E and GA2E for RARα and RARγ. Retinoic acid receptor transactivation activity and binding efficiencies were determined essentially as described in U.S. Pat. Nos. 5,298,429 and 5,071,773, incorporated by reference herein for all they teach regarding transactivation assays. Transactivation assays employed expression plasmids encoding the full-length receptors RARα and RARγ. Reporter plasmids containing the herpes virus thymidine kinase promoter and the appropriate retinoic acid receptor response element (RAREs) were positioned upstream of an open coding region encoding firefly luciferase.
The ability of GA1E and GA2E to activate RARα and RARγ in a transactivation assay was tested over a concentration range of 0.5 to 625 nM (GA2E) or 0.05 to 3320 nM (GA1E). GA1E induced less than 10% transactivation for RARα across the whole concentration range, but over 50% transactivation for RARγ at concentrations ≥25 nM and over 70% at concentrations 125 nM (FIG. 3A). GA2E induced more than 85% transactivation at all tested concentrations and less than 10% transactivation of RARα at concentrations of ≤25 nM (FIG. 3B).

EMT6 cells [3] = experiment: EMT6 syngeneic mouse model of triple negative breast cancer (Example 3); type: in vivo; conditions: 21 daily oral doses 10 mg/kg; at the end of the study
Method: The RARγ agonists tazarotenic acid and GA2E were evaluated in the EMT6 syngeneic mouse model of breast cancer. 5×10^5 EMT6 cells were injected into the mammary fat pad of immunocompetent female Balb/c mice. When the tumors reached an average volume of 50-150 mm^3, mice were matched by tumor size into control or treatment groups (n=10-11).
The mice were treated with 21 daily oral doses 10 mg/kg of 1 mg/ml tazarotenic acid or GA2E, or vehicle control, starting on Day 0. Tumor volume was measured, and the mice weighed, on days 0, 1, 3, 6, 8, 10, 13, 15, 17, 20, and 21.

TIL in EMT6 tumors = experiment: Flow cytometry of excised EMT6 tumors (Example 4); type: in vivo, mouse
Description: At the end of the study of Example 3, the tumors were excised, the cells disaggregated and dispersed without use of proteases, stained with various agents, and subjected to flow cytometry. FIG. 5A-B present the results of the flow cytometry both as a percentage of cells and as the number of cells per tumor. […] Of these live cells, a substantial proportion were leukocytes (FIG. 5A, “CD45” panels). […] The majority of the T cells were CD4+(FIG. 5A, “CD4” panels), expected to be predominantly helper cells. Of the CD4^+ cells, only small proportions were T memory cells (expected to be predominantly TH1 memory cells) based on intracellular staining for IFNγ (FIG. 5B, “TH IFGγ” panels), TH17 cells based in intracellular staining for IL-17 (FIG. 5B, “TH IL17” panels), or Treg cell based on staining for CD25 and FoxP3 (FIG. 5B, “Treg” panels). About 25-30% of the T cells were CD8^+ (FIG. 5B, “CD8 T” panels), expected to be predominantly cytotoxic cells.

Row | Structure (SMILES) | effect on viability as concentrations exceeded 10 μM (EMT6 cells [1]) | effect on viability at concentrations below 1 μM (EMT6 cells [1]) | IC50 (EMT6 cells [1]) | effect on viability as concentrations exceeded 10 μM [2] | effect on viability at concentrations below 1 μM [2] | IC50 [2] | IFNγ production (PBMC) | Proliferation of CD8+ cells (CFSE dilution) (PBMC) | transactivation for RARγ (RARγ; at concentrations 125 nM) | transactivation for RARγ (RARγ; at concentrations ≥25 nM) | tumor growth inhibition (EMT6 cells [3]) | T cells (anti-CD3) as mean percentage of the leukocytes in the tumor (TIL in EMT6 tumors; 10 mg/kg oral daily, end of study) | proportion of CD8+ T cells that were memory cells (intracellular IFNγ) (TIL in EMT6 tumors; vs vehicle control, did not achieve statistical significance)
1 | CC1(C)CCC(C)(C)c2cc(C(/C=C/c3ccc(C(=O)O)cc3)=N/O)ccc21 [GA3Ep] | rapidly became toxic | no effect | 101 µM | rapidly became toxic | no effect | 45 µM | increased IFNγ production substantially | increased |  |  |  |  | 
2 | CCc1oc2ccc(C(/C=C/c3ccc(C(=O)O)cc3F)=N/O)cc2c1C(C)(C)C [GA1E, 4-((1E,3E)-3-(3-(tert-butyl)-2-ethyl-benzofuran-5-yl)-3-(hydroxyimino)prop-1-en-1-yl)-3-fluorobenzoic acid] | rapidly became toxic | no effect | 52 µM | rapidly became toxic | no effect | 96 µM |  |  | over 70% | over 50% |  |  | 
3 | CC1(C)CCSc2ccc(C#Cc3ccc(C(=O)O)cn3)cc21 [tazarotenic acid, reference compound] |  |  |  |  |  |  | increased IFNγ production substantially | increased |  |  | 44% | ~10% | numerically increased
